Assay results published in US20020188202A1, “Method of diagnosis and treatment and related compositions and apparatus” (priority 1996, published 2002).
“Also recorded” adds a separate entry of the source. Counter-ions that a name gives are not always drawn. Like-named read-outs stand apart in the source and are kept apart here.

Experiments:
[1] = system: patients with cerebral vasospasm; experiment: Vasoactive medications tried on Applicant's patients with vasospasm, monitored by Transcranial Doppler (TCD), exam and symptoms; settings: for EEG abnormalities and neurocognitive or neurological complaints / change of the vasospasm: anti-epileptic drugs in therapeutic doses; for effect on vessels seen on TCD / ultrasound (vasoconstriction or dilatation) / headache / neurological exam and other neurological abnormalities: human, in vivo; for effectiveness in treating the vasospasm: qualitative rating in Applicant's patient population (tend to be the most severe cases)
[2] = system: patient with migraine, schizophrenic reaction and vasospasm; experiment: Case study: psychosis caused by cerebral ischemia, EEG and TCD; format: in vivo, human patient; settings: single patient; for response of psychosis (hallucinations and delusions): in hospital
[3] = system: patients with cerebral vasospasm; settings: human, in vivo
[4] = IM, lower doses than 90 to 120 mg

## CCCC(CCC)C(=O)[O-].[Na+] [Depakote, Sodium Valproate]
[1]
  EEG abnormalities and neurocognitive or neurological complaints: improved in some patients
  change of the vasospasm: none of the medications in therapeutic doses have changed the vasospasm
[2]
  EEG and flow abnormalities on Transcranial Doppler: without change in their EEG and continued flow abnormalities

## CNS(=O)(=O)Cc1ccc2[nH]cc(CCN(C)C)c2c1 [Imitrex, sumatriptan succinate]
[1]
  effect on vessels seen on TCD / ultrasound (vasoconstriction or dilatation): caused vasoconstriction
  headache: improved their headache
  neurological exam and other neurological abnormalities: worsened the patient's neurological exam and mentation

## CCOC(=O)[C@H](CCc1ccccc1)N[C@H]1CCc2ccccc2N(CC(=O)O)C1=O [Lotensin, Benazepril]
[1]
  effectiveness in treating the vasospasm: close second tier medications

## COc1cc2nc(N3CCN(C(=O)C4COc5ccccc5O4)CC3)nc(N)c2cc1OC (centres unmarked) [Cardura, Doxazosin]
[1]
  effectiveness in treating the vasospasm: relatively mild medication

## NC(=O)N1c2ccccc2C=Cc2ccccc21 [Tegretol, Carbamazepine]
[1]
  EEG abnormalities and neurocognitive or neurological complaints: improved in some patients
  change of the vasospasm: none of the medications in therapeutic doses have changed the vasospasm

## NCCCC[C@H](N[C@@H](CCc1ccccc1)C(=O)O)C(=O)N1CCC[C@H]1C(=O)O [Prinivil, Lisinopril]
[1]
  effectiveness in treating the vasospasm: close second tier medications

## CN(C)CCCN1c2ccccc2Sc2ccc(Cl)cc21 [Thorazine, Chlorpromazine]
[1]
  effectiveness in treating the vasospasm: moderately effected; also recorded: moderately effective

## CNCCC(Oc1ccc(C(F)(F)F)cc1)c1ccccc1 (centres unmarked) [Prozac]
[1]
  effectiveness in treating the vasospasm: helpful

## NCCCC[C@H](N[C@@H](CCc1ccccc1)C(=O)O)C(=O)N1CCC[C@H]1C(=O)O [Zestril, Lisinopril]
[1]
  effectiveness in treating the vasospasm: extremely effective

## COC(=O)[C@H]1[C@H]2C[C@@H]3c4[nH]c5cc(OC)ccc5c4CCN3C[C@H]2C[C@@H](OC(=O)c2cc(OC)c(OC)c(OC)c2)[C@@H]1OC [Reserpine]
[1]
  effectiveness in treating the vasospasm: very effective; also recorded: extremely effective

## CC(C)NCC(O)COc1cccc2ccccc12 (centres unmarked) [Inderal, Propranolol]
[1]; patients being tapered off vasodilators
  smoothing out the sympathetic nervous system excitability and variability: most effective; also recorded: extremely effective
[1]
  effectiveness in treating the vasospasm: None of these have been significantly effective at vasodilation
[2]
  EEG and flow abnormalities on Transcranial Doppler: without change in their EEG and continued flow abnormalities

## COCCc1ccc(OCC(O)CNC(C)C)cc1 (centres unmarked) [Lopressor, Metoprolol Tartrate]
[1]
  effectiveness in treating the vasospasm: None of these have been significantly effective at vasodilation

## COC(=O)C1=C(C)NC(C)=C(C(=O)OC(C)C)C1c1cccc2nonc12 (centres unmarked) [Dynacirc, isradipine]
[1]
  effect on vessels seen on TCD / ultrasound (vasoconstriction or dilatation): resulted in vascular dilatation
  headache: alleviated or treated the headache
  neurological exam and other neurological abnormalities: clinical and neurological exam improvement
  effectiveness in treating the vasospasm: extremely effective
[3]
  transient supersensitivity (transient worsening of the vasospasm) on early administration: did not occur

## O=C(O)C(O)C(O)C(=O)O.Oc1ccc2c(c1)[C@@]13CCCC[C@@]1(O)[C@@H](C2)N(CC1CCC1)CC3 [Stadol, butorphanol tartrate]
[1]
  effect on vessels seen on TCD / ultrasound (vasoconstriction or dilatation): caused vasoconstriction
  headache: improved their headache
  neurological exam and other neurological abnormalities: worsened the patient's neurological exam and mentation

## O=C(CCCN1CCC(O)(c2ccc(Cl)cc2)CC1)c1ccc(F)cc1 [Haldol, Haloperidol]
[2]
  response of psychosis (hallucinations and delusions): did not respond; also recorded: poor response

## CN1CCN(CC/C=C2/c3ccccc3Sc3ccc(S(=O)(=O)N(C)C)cc32)CC1 [Navane, Thiothixene]
[1]; patients with TCD mean flow velocities greater than 1.3, within a half hour of 2 mg in 4 ounces of water orally, generally expected
  improvement in the Transcranial Doppler Artery Ultrasound: 50%
[1]; patients with vasospasm
  blood pressure changes: without causing peripheral blood pressure changes
[1]
  effectiveness in treating the vasospasm: extremely effective central vasodilator
[1]; listed as Navanne
  effectiveness in treating the vasospasm: most effective
[2]
  response of psychosis (hallucinations and delusions): good response

## CC(C)NCC(O)COc1ccc(CC(N)=O)cc1 (centres unmarked) [Tenormin, Atenolol]
[1]
  effectiveness in treating the vasospasm: None of these have been significantly effective at vasodilation

## COc1ccc([C@@H]2Sc3ccccc3N(CCN(C)C)C(=O)[C@@H]2OC(C)=O)cc1 [Dilacor, Diltiazem]
[1]
  effectiveness in treating the vasospasm: less effective

## NNc1nncc2ccccc12 [Hydralazine]
[3]
  blood pressure changes: tends to cause significant blood pressure changes
  transient supersensitivity (transient worsening of the vasospasm) on early administration: did not occur

## CSc1ccc2c(c1)N(CCC1CCCCN1C)c1ccccc1S2 (centres unmarked) [Mellaril, Thioridazine]
[1]
  effectiveness in treating the vasospasm: has not been effective; also recorded: no significant effects

## Clc1cccc(Cl)c1N=C1NCCN1 [Clonidine]
[1]
  effect on vessels seen on TCD / ultrasound (vasoconstriction or dilatation): resulted in vascular dilatation
  headache: alleviated or treated the headache
  neurological exam and other neurological abnormalities: clinical and neurological exam improvement
  effectiveness in treating the vasospasm: extremely effective
[1]; patients who could not tolerate or respond to other vasodilators
  treating migraine induced depression due to chronic vasospasm: useful in these depressed patients
[3]
  transient supersensitivity (transient worsening of the vasospasm) on early administration: did not occur

## C[C@H](CS)C(=O)N1CCC[C@H]1C(=O)O [Capoten, Captopril]
[1]
  effectiveness in treating the vasospasm: close second tier medications

## Cc1nc2n(c(=O)c1CCN1CCC(c3noc4cc(F)ccc34)CC1)CCCC2 [Respiradol, Respiradone]
[1]; antipsychotic agents in patients with vasospasm
  patient's symptoms: generally improved the patient's symptoms
[1]
  effect on vessels seen on TCD / ultrasound (vasoconstriction or dilatation): no significant improvement on ultrasound
[3]
  tolerability: less well-tolerated in comparison with Thorazine and Navane

## O=C1NC(=O)C(c2ccccc2)(c2ccccc2)N1 [Dilantin, Phenytoin]
[1]
  EEG abnormalities and neurocognitive or neurological complaints: improved in some patients
  change of the vasospasm: none of the medications in therapeutic doses have changed the vasospasm

## COc1cc2nc(N3CCN(C(=O)C4CCCO4)CC3)nc(N)c2cc1OC (centres unmarked) [Hytrin, Terazosin]
[1]
  effectiveness in treating the vasospasm: less successful results; also recorded: has not been found to be effective

## CCOC(=O)[C@H](CCc1ccccc1)N[C@@H](C)C(=O)N1Cc2ccccc2C[C@H]1C(=O)O [Accupril, Quinapril]
[1]
  effectiveness in treating the vasospasm: consistently been the most effective
[1]; with concomitant low dose Nitroglycerin, 1/10th inch once to several times a day
  weaning from oral medications: most patients may be eventually weaned from the use of oral medications

## O=C(c1ccccc1)c1ccc2n1CCC2C(=O)O (centres unmarked) [Toradol, ketorolac tromethamine]
[1]; 90 to 120 mg IM doses
  effect on Transcranial Doppler ultrasound: causes acute vasodilation on ultrasound in most patients
[1]; IM
  reversal of reactive vasoconstriction (Nitric Oxide sensitivity reaction) after first nitrate dose: can be immediately reversed
[1]; IM, doses lower than 90-120 mg
  effectiveness: not so effective
[1]; [4]
  effect on Transcranial Doppler ultrasound: generally do not show significant changes
  patient-reported symptoms: symptomatic improvement
[1]; IV, 30 to 60 mg doses
  improvement on Transcranial Doppler Artery Ultrasound: does not cause any improvement
[1]
  effect on vessels seen on TCD / ultrasound (vasoconstriction or dilatation): resulted in vascular dilatation
  headache: alleviated or treated the headache
  neurological exam and other neurological abnormalities: clinical and neurological exam improvement
[1]; intramuscularly (I.M.) or oral form after oral or I.M. loading
  vasodilation: gives the expected vasodilation

## CC(COc1ccccc1)N(CCCl)Cc1ccccc1 (centres unmarked) [Dibenzyline, Phenoxybenzamine]
[1]
  effectiveness in treating the vasospasm: relatively mild

## CN1C[C@H](C(=O)N[C@]2(C)O[C@@]3(O)[C@@H]4CCCN4C(=O)[C@H](Cc4ccccc4)N3C2=O)C[C@@H]2c3cccc4[nH]cc(c34)C[C@H]21 [DHE]
[1]
  effect on vessels seen on TCD / ultrasound (vasoconstriction or dilatation): caused vasoconstriction
  headache: improved their headache
  neurological exam and other neurological abnormalities: worsened the patient's neurological exam and mentation

## CC(CCc1ccccc1)NCC(O)c1ccc(O)c(C(N)=O)c1 (centres unmarked) [Normodyne, Labetolol]
[1]
  effectiveness in treating the vasospasm: None of these have been significantly effective at vasodilation
